This passage reports viability results from PMC12040169 (PLOS Biology, 2025).

The nature of the data set: in vitro. The settings on record: human, hela cells, % viability.
As for `CN(C(=O)c1cc(-c2cccs2)[nH]n1)c1ccccc1` [CBK288115], the viability at 28.5 h, 10 µM was determined as 86.1%.

For the molecule `c1nc(N2CCOCC2)c2cn[nH]c2n1` [CBK016811], the viability at 28.5 h, 10 µM was 86.3%.

In the case of `O=S(=O)(Nc1ccccc1N1CCCCC1)c1ccc(Cl)cc1` [CBK077063], the viability at 28.5 h, 10 µM came to 100%.

Consider `COc1cccc(C(=O)Nc2ccc(O)c(C)c2)c1` [CBK264413], for which the viability at 28.5 h, 10 µM was 88.1%.

Turning to `Cc1ccc2oc([C@H]3CN(C(=O)C(C)(C)NC(=O)OC(C)(C)C)C[C@@H]3C(=O)O)cc2c1` [CBK001600], the viability at 28.5 h, 10 µM is 86.1%.

As to `COc1ccc(-c2cnc3[nH]c(=O)n([C@@H](CO)C(C)C)c3n2)c(OC)c1OC` [CBK064774], the viability at 28.5 h, 10 µM is 94.3%.

Turning to `CCC(CC)n1nc(C(=O)NC2(C#N)CCSC2)cc1C` (stereo not shown) [CBK305111], the viability at 28.5 h, 10 µM was found to be 103%.

Take `CCN1C(=O)/C(=C\NN=C2CCCC2)c2ccc(C3=NNC(=O)CC3)cc21` [CBK263515]: the viability at 28.5 h, 10 µM is 88.1%.

For `c1cnc(NCc2cc3n(n2)CCN(CC2CCCC2)C3)nc1` [CBK307007], the viability at 28.5 h, 10 µM stood at 87.9%.

Turning to `O=C(O)c1cc(S(=O)(=O)Nc2ccc3cc(Br)cnc3n2)c(F)cc1Cl` [CBK073898], the viability at 28.5 h, 10 µM was 92.2%.

On to `CCOc1cc(NC(=O)N2CCC(Cc3cnn(C)c3)C2)ccc1C` (stereo not shown) [CBK305295], for which the viability at 28.5 h, 10 µM came out at 105%.

`CC(=O)Nc1ccc(-c2cc(Nc3cccc(N(C)C)c3)ncn2)cc1` [CBK091017]: the viability at 28.5 h, 10 µM worked out at 83.7%.

Turning to `Cc1ccnc(SCC(=O)Nc2sc3c(c2C(=O)Nc2ccccc2)CCCC3)n1` [CBK266348], the viability at 28.5 h, 10 µM is 106%.

Turning to `Cc1ccccc1C(c1cnccn1)N(C)C(=O)C1CCN(C(=O)c2ccccc2)CC1` (stereo not shown) [CBK060208], the viability at 28.5 h, 10 µM was determined as 94.4%.

For the molecule `CCC(CO)Nc1cncc(-c2cccc(/C=C/C(=O)O)c2)n1` (stereo not shown) [CBK065569], the viability at 28.5 h, 10 µM turned out to be 114%.

For the molecule `O=C(CN1CCN(c2nc3cc(Cl)ccc3s2)CC1)c1ccc2c(c1)OCCCO2` [CBK074737], the viability at 28.5 h, 10 µM stood at 96.6%.

With `O=S(=O)(Nc1nccnc1N1CCN(c2ccccc2)CC1)c1ccc(F)cc1` [CBK048706], the viability at 28.5 h, 10 µM is 94.2%.

On to `Cc1cc(C)n(C(CC(=O)N2CCCCC2)C(=O)O)n1` (stereo not shown) [CBK286806], for which the viability at 28.5 h, 10 µM stood at 85.6%.

Regarding `CC(=O)N(c1ccc2oc3c(c2c1)CCCC3)S(=O)(=O)c1ccc(C(=O)O)cc1` [CBK299808], the viability at 28.5 h, 10 µM amounted to 92.5%.

For the molecule `CC(=O)N1CC[C@H]2NC(=O)CNC(=O)C3(CCCC[C@H]2C1)CCN(C(=O)c1ccc(C)nc1)CC3` [CBK292172], the viability at 28.5 h, 10 µM amounted to 94.7%.

Regarding `Cc1ccc(OCC(=O)N2CCN(C(=O)c3ccncc3)CC2)cc1` [CBK300480], the viability at 28.5 h, 10 µM worked out at 92.3%.

On to `COc1cccc2sc(Nc3nc4c(s3)C(=O)CC(C)(C)C4)nc12` [CBK287467], for which the viability at 28.5 h, 10 µM was determined as 86%.

Take `CC(=O)NCCSc1ccc(C(F)(F)F)cn1` [CBK105298]: the viability at 28.5 h, 10 µM amounted to 94.3%.

`O=C(NCCCNc1ccc(C(F)(F)F)cc1[N+](=O)[O-])c1ccc(Cl)cc1` [CBK263721]: the viability at 28.5 h, 10 µM is 99%.

Turning to `Cc1cccc(OCC(=O)NC(=S)Nc2cccc(C(=O)O)c2C)c1` [CBK265067], the viability at 28.5 h, 10 µM came to 96.3%.

In the case of `CC(=O)N1CC[C@H]2NC(=O)CNC(=O)C3(CCCC[C@H]2C1)CCN(C(=O)COc1ccccc1)CC3` [CBK292101], the viability at 28.5 h, 10 µM was 100%.

As for `COc1ccc(CNc2ccc(N3CCOCC3)c(C(=O)O)c2)c(OC)c1` [CBK269860], the viability at 28.5 h, 10 µM was determined as 91.3%.

Turning to `COc1ccc(CN[C@H]2[C@H](O)[C@@H](N3CCN(C(C)=O)CC3)[C@@H]3OC[C@H]2O3)cc1` [CBK288808], the viability at 28.5 h, 10 µM is 96.9%.

Take `COc1ccc(C(C)C)cc1-c1cnc(N)c(N2CCOCC2)n1` [CBK063384]: the viability at 28.5 h, 10 µM came out at 92.1%.

With `Cn1c(=O)n(CC(=O)NC23CC4CC(CC(C4)C2)C3)c2cccnc21` [CBK283795], the viability at 28.5 h, 10 µM worked out at 81.7%.

For `Cc1ccc(S(=O)(=O)NCCn2nc(C)c(C)c2C)s1` [CBK281502], the viability at 28.5 h, 10 µM was found to be 86.7%.

In the case of `N#Cc1ccc(NC(=O)NCC2(N3CCOCC3)CCSC2)cc1` (stereo not shown) [CBK304546], the viability at 28.5 h, 10 µM is 89.5%.

With `O=C(Nc1cccc2ncccc12)c1cccc(Oc2ccccc2)c1` [CBK296716], the viability at 28.5 h, 10 µM was determined as 91.7%.

As for `C[C@@H](Nc1cncc(-c2ccncc2)n1)c1ccccc1` [CBK066055], the viability at 28.5 h, 10 µM worked out at 90%.

For the molecule `Cc1cc(C)c(C)c(OCCCNC(=O)Cc2c(C)noc2C)c1` [CBK281506], the viability at 28.5 h, 10 µM is 100%.

Regarding `CCNC(=O)Nc1cc2cccnc2nc1-c1ccc2c(c1)OCCCO2` [CBK070695], the viability at 28.5 h, 10 µM is 97.1%.

For `CC(CC(=O)O)CC(=O)Nc1cccc(C(=O)O)c1` (stereo not shown) [CBK265651], the viability at 28.5 h, 10 µM is 99.1%.

Take `CCS(=O)(=O)N1CCN(Cc2ccc3c(c2)OCO3)CC1` [CBK074545]: the viability at 28.5 h, 10 µM turned out to be 92.2%.

Regarding `CC(C)(c1ccccc1)c1ccc(OCC(=O)Nc2cccc(C(=O)O)c2)cc1` [CBK266014], the viability at 28.5 h, 10 µM worked out at 102%.

For `NC(CSC12CC3CC(CC(C3)C1)C2)C(=O)O` (stereo not shown) [CBK287219], the viability at 28.5 h, 10 µM was 88.2%.

`O=C(NC1(c2ccc(F)cc2)CCCC1)c1cnccn1` [CBK283595]: the viability at 28.5 h, 10 µM turned out to be 85.1%.

As to `O=C(NCCCc1ccccn1)c1cc2ccc(F)cc2[nH]1` [CBK283211], the viability at 28.5 h, 10 µM was found to be 84.4%.

`COc1ccc(C23CCCN(C)C2C[C@@H](O)CC3)cc1OC` (stereo partly shown) [CBK016226C]: the viability at 28.5 h, 10 µM was 94.1%.

Take `Cc1ccc(N2C(=O)c3ccccc3C2=O)cc1` [CBK113243]: the viability at 28.5 h, 10 µM was 95.7%.

As for `CCN(Cc1cn2cccc(C(=O)OC)c2n1)CC1CCOC1` (stereo not shown) [CBK304880], the viability at 28.5 h, 10 µM worked out at 96.6%.

As for `Nc1ccc2ccc(-c3ccsc3)nc2n1` [CBK067624], the viability at 28.5 h, 10 µM was 89.4%.

For the molecule `COc1cc(-c2nccnc2NCCc2ccccn2)cc(OC)c1OC` [CBK037307], the viability at 28.5 h, 10 µM stood at 91.4%.

Regarding `CCc1cc(Br)ccc1S(=O)(=O)NCCc1cccs1` [CBK045033], the viability at 28.5 h, 10 µM came to 109%.

As to `CC(=O)Nc1ccc(C(=O)CSc2nnc(C)o2)cc1` [CBK267851], the viability at 28.5 h, 10 µM was found to be 107%.

`C#CCNC(=O)[C@H]1O[C@H](CCN(C)CC#C)CC[C@@H]1O` [CBK288727]: the viability at 28.5 h, 10 µM amounted to 89.6%.

As to `O=C(Nc1ccon1)c1nn(-c2ncccn2)c2ccccc12` [CBK048513], the viability at 28.5 h, 10 µM is 95.3%.

In the case of `FC(F)(F)c1cc(-c2cc(Nc3ccc4[nH]ccc4c3)ncn2)cc(C(F)(F)F)c1` [CBK090855], the viability at 28.5 h, 10 µM came out at 97.9%.

`O=C(Cc1ccccc1F)NCCn1nc(-c2ccco2)ccc1=O` [CBK283705]: the viability at 28.5 h, 10 µM amounted to 96.9%.

For `O=C(c1cncnc1)N1CCN(C(=O)c2ccco2)CC1` [CBK144477], the viability at 28.5 h, 10 µM stood at 104%.

`Cn1c(=O)oc2cc(Br)ccc21` [CBK027375]: the viability at 28.5 h, 10 µM turned out to be 108%.

As for `Cc1ccc(C23CC4CC(CC(NC(=O)NC(Cc5ccccc5)C(=O)O)(C4)C2)C3)cc1` (stereo not shown) [CBK267423], the viability at 28.5 h, 10 µM came out at 93.7%.

On to `CC(C)(C)Cc1nnc(N)s1` [CBK050161], for which the viability at 28.5 h, 10 µM came out at 92.6%.

In the case of `c1ccc2c(c1)OCC(COc1nccc(N3CCCNCC3)n1)O2` (stereo not shown) [CBK085471], the viability at 28.5 h, 10 µM stood at 89.8%.

As a reminder, the viability is a read-out of living cells in per cent, often relative to untreated cells.
